Assay results published in patent publication US6527981B1, “Azole/amine oxide preservatives” (Lonza Inc., priority 1999, dated 2003).
Values after ≈ are worked out from the molar mass of the structure shown. Like-named read-outs stand apart in the source and are kept apart here.

How the values were obtained:
[1] = test system: T. versicolor (white rot fungi); experiment: agar dilution plate method, wood rot fungi (MIC, IC50, percent retardation); format: cell-based; details: for MIC: Trametes versicolor
[2] = test system: C. globosum (soft rot decay fungi); experiment: as above; format: cell-based; details: for MIC: Chaetomium globosum
[3] = test system: G. trabeum (brown rot fungi); experiment: as above; format: cell-based; details: for MIC: Gloeophyllum trabeum
[4] = cited from earlier work; for Solubility in Water^b: Material Safety Data Sheet; for Solubility in water^a: The Pesticide Manual, 11th Edition
[5] = test system: P. placenta (brown rot fungi); experiment: agar dilution plate method, wood rot fungi (MIC, IC50, percent retardation); format: cell-based
[6] = azole alone, read-out: T. versicolor MIC
[7] = azole alone, Table2D curve fitting
[8] = azole alone, read-out: C. globosum MIC
[9] = azole alone, read-out: G. trabeum MIC
[10] = azole alone, read-out: P. placenta MIC
[11] = Table 8, ppm of amine oxide or didecyldimethyl ammonium chloride
[12] = amine oxide alone, 100% growth retardation
[13] = ppm of amine oxide or didecyldimethyl ammonium chloride, Table2D curve fitting
[14] = amine oxide alone, 100% growth retardation, read-out: MIC (ppm of amine oxides) T. versicolor
[15] = amine oxide alone, 100% growth retardation, read-out: MIC (ppm of amine oxides) C. globosum
[16] = amine oxide alone, 100% growth retardation, read-out: MIC (ppm of amine oxides) G. trabeum
[17] = amine oxide alone, 100% growth retardation, read-out: MIC (ppm of amine oxides) P. placenta

For `N#CC(CCc1ccc(Cl)cc1)(Cn1cncn1)c1ccccc1` (stereo not shown) [Fenbuconazole, fenbuconazole], the MIC [1, 6] was 25 µg/mL (≈ 74.2 µM), the “T. versicolor IC50” value [1, 7] was 1.1 ppm and the MIC [2, 8] was 50 µg/mL (≈ 148 µM). The “C. globosum IC50” value [2, 7] was 10.7 ppm, the MIC [3, 9] was 50 µg/mL (≈ 148 µM) and the “G. trabeum IC50” value [3, 7] was 0.3 ppm. For the same molecule, the “Solubility in Water^b” value ([4]; 25° C.) was 4 ppm at 25 °C, the “Solubility in water^a” value ([4]; 25° C.) was 0.2 ppm/25 °C and the “P. placenta IC50” value [5, 7] was 3.9 ppm. For the same molecule, the MIC [5, 10] was 25 µg/mL (≈ 74.2 µM).

In the case of “coco-alkyl (C12-C16) dimethylamine oxide [Coco-DMAO]”, the “MIC T. versicolor” value [1, 11] is reported as 750 ppm, the “Qa, concentration of amine oxide alone required to yield 100% retardation, T. versicolor” value (“Qa … to yield 100% retardation, T. versicolor” below) ([1]; amine oxide alone) is reported as 750 ppm and the “MIC (ppm of amine oxides) T. versicolor” value [1, 12] is reported as 750 ppm. The “IC50 T. versicolor” value [1, 13] was 51 ppm, the “MIC C. globosum” value [2, 11] was greater than 1000 ppm and the “MIC (ppm of amine oxides) C. globosum” value [2, 12] was greater than 1000 ppm. The “IC50 C. globosum” value [2, 13] was 47 ppm, the “MIC G. trabeum” value [3, 11] was 500 ppm and the “Qa, concentration of amine oxide alone required to yield 100% retardation, G. trabeum” value (shortened to “Qa … to yield 100% retardation, G. trabeum”) ([3]; amine oxide alone) was 500 ppm. The “MIC (ppm of amine oxides) G. trabeum” value [3, 12] was 500 ppm, the “IC50 G. trabeum” value [3, 13] was 9 ppm and the “MIC P. placenta” value [5, 11] was 1000 ppm. For the same molecule, the “MIC (ppm of amine oxides) P. placenta” value [5, 12] was 500-1000 ppm and the “IC50 P. placenta” value [5, 13] was 5 ppm.

In the case of `CCCCCCCCCCCCCC[N+](C)(C)[O-]` [Tetradecyl-DMAO, tetradecyl dimethylamine oxide], the MIC [1, 14] is reported as greater than 1000 µg/mL, the “Qa … to yield 100% retardation, T. versicolor” value ([1]; amine oxide alone) is reported as 1000 ppm and the MIC [2, 15] is reported as greater than 1000 µg/mL. The MIC [3, 16] was greater than 1000 µg/mL, the “Qa … to yield 100% retardation, G. trabeum” value ([3]; amine oxide alone) was 1000 ppm and the “Qa, concentration of amine oxide alone required to yield 100% retardation, P. placenta” value (from here on “Qa … to yield 100% retardation, P. placenta”) ([5]; amine oxide alone) was 1000 ppm. It also gave an MIC [5, 17] greater than 1000 µg/mL.

In the case of “coco-alkyl-di(hydroxyethyl)amine oxide [Coco-di(hydroxyethyl)-amine oxide]”, the “MIC (ppm of amine oxides) T. versicolor” value [1, 12] is reported as 500 ppm, the “MIC (ppm of amine oxides) C. globosum” value [2, 12] is reported as greater than 1000 ppm and the “MIC (ppm of amine oxides) G. trabeum” value [3, 12] is reported as 500 ppm. The “MIC (ppm of amine oxides) P. placenta” value [5, 12] was 500 ppm.

With `CC(C1CC1)C(O)(Cn1cncn1)c1ccc(Cl)cc1` (stereo not shown) [Cyproconazole, cyproconazole] the MIC [1, 6] was 2.5 µg/mL (≈ 8.57 µM), the “T. versicolor IC50” value [1, 7] was 0.2 ppm and the MIC [2, 8] was 25 µg/mL (≈ 85.7 µM). For the same molecule, the “C. globosum IC50” value [2, 7] was 2.3 ppm, the MIC [3, 9] was 2.5 µg/mL (≈ 8.57 µM) and the “G. trabeum IC50” value [3, 7] was 0.3 ppm. The “P. placenta IC50” value [5, 7] was 0.7 ppm and the MIC [5, 10] was 2.5 µg/mL (≈ 8.57 µM).

For `CCCCCCCCCC[N+](C)(C)[O-]` [Decyl-DMAO, decyl dimethylamine oxide], the MIC [1, 14] was 750 µg/mL (≈ 3720 µM), the “Qa … to yield 100% retardation, T. versicolor” value ([1]; amine oxide alone) was 750 ppm and the MIC [2, 15] was greater than 1000 µg/mL. For the same molecule, the MIC [3, 16] was 250 µg/mL (≈ 1240 µM), the “Qa … to yield 100% retardation, G. trabeum” value ([3]; amine oxide alone) was 250 ppm and the “Qa … to yield 100% retardation, P. placenta” value ([5]; amine oxide alone) was 500 ppm. For the same molecule, the MIC [5, 17] was 500 µg/mL (≈ 2480 µM).

With `CCCCCCCCCCCCCCCCCC[N+](C)(C)[O-]` [Octadecyl-DMAO, octadecyl dimethylamine oxide] the MIC [1, 14] was greater than 1000 µg/mL, the “Qa … to yield 100% retardation, T. versicolor” value ([1]; amine oxide alone) was 1000 ppm and the MIC [2, 15] was greater than 1000 µg/mL. The MIC [3, 16] was greater than 1000 µg/mL, the “Qa … to yield 100% retardation, G. trabeum” value ([3]; amine oxide alone) was 1000 ppm and the “Qa … to yield 100% retardation, P. placenta” value ([5]; amine oxide alone) was 1000 ppm. It also gave an MIC [5, 17] greater than 1000 µg/mL.

In the case of `CC(C)(C)C(=O)C(Oc1ccc(Cl)cc1)n1cncn1` (stereo not shown) [Triadimefon, triadimefon], the “Solubility in Water^b” value ([4]; 20° C.) is listed as 64 ppm at 20 °C and the “Solubility in water^a” value ([4]; 20° C.) is listed as 64 ppm/20 °C.

In the case of `CCCCCCCCCCCC[N+](C)([O-])Cc1ccccc1` (stereo not shown) [Dodecyl-BMAO], the “MIC (ppm of amine oxides) T. versicolor” value [1, 12] is reported as greater than 1000 ppm, the “MIC (ppm of amine oxides) C. globosum” value [2, 12] is reported as greater than 1000 ppm and the “MIC (ppm of amine oxides) G. trabeum” value [3, 12] is reported as 1000 ppm. For the same molecule, the “MIC (ppm of amine oxides) P. placenta” value [5, 12] was greater than 1000 ppm.

In the case of `CC(C)(C)C(O)(CCc1ccc(Cl)cc1)Cn1cncn1` (stereo not shown) [Tebuconazole, tebuconazole], the MIC [1, 6] is reported as 25 µg/mL (≈ 81.2 µM), the “Qb, concentration of azole alone required to yield 100% retardation, T. versicolor” value ([1]; azole alone) is reported as 25 ppm and the “T. versicolor IC50” value [1, 7] is reported as 2.3 ppm. For the same molecule, the MIC [2, 8] was 50 to 500 µg/mL (≈ 162 to 1620 µM), the “C. globosum IC50” value [2, 7] was 34.5 ppm and the MIC [3, 9] was 10 µg/mL (≈ 32.5 µM). The “Qb, concentration of azole alone required to yield 100% retardation, G. trabeum” value ([3]; azole alone) was 10 ppm, the “G. trabeum IC50” value [3, 7] was less than 0.1 ppm and the “Solubility in Water^b” value ([4]; 20° C.) was 32 ppm at 20 °C. For the same molecule, the “Qb, concentration of azole alone required to yield 100% retardation, P. placenta” value ([5]; azole alone) was 50 ppm, the “P. placenta IC50” value [5, 7] was 1.7 ppm and the MIC [5, 10] was 50 µg/mL (≈ 162 µM).

With `CCCCCCCC[N+](C)(C)[O-]` [Octyldimethylamine oxide, octyl dimethylamine oxide] the MIC [1, 14] was 750 µg/mL (≈ 4330 µM), the “Qa … to yield 100% retardation, T. versicolor” value ([1]; amine oxide alone) was 750 ppm and the MIC [2, 15] was greater than 1000 µg/mL. The MIC [3, 16] was 1000 µg/mL (≈ 5770 µM), the “Qa … to yield 100% retardation, G. trabeum” value ([3]; amine oxide alone) was 1000 ppm and the “Qa … to yield 100% retardation, P. placenta” value ([5]; amine oxide alone) was 1000 ppm. For the same molecule, the MIC [5, 17] was 1000 µg/mL (≈ 5770 µM).
